The results in this text go back to US5556859A, “N-(4-pyrimidinyl)amide pesticides” (DowElanco, priority 1994, dated 1996).

In experiment [1] the test system is cotton aphid (Aphis gossypii). Nature of the experiment: whole plant or invertebrate. Conditions: 72 h, read-out: percent mortality, CA.
For experiment [2], the system named is peanut root knot nematode (Meloidogyne arenaria). Nature of the experiment: whole plant or invertebrate. The settings on record: in Arachis hypogaea, read-out: percent mortality, RKN.
The subject of experiment [3] is Southern corn rootworm (Diabrotica undecimpuctata howardi Barber). Nature of the experiment: whole plant or invertebrate. The settings on record: in Zea mays, soil, read-out: percent mortality, SCRW.
Experiment [4] relates to tobacco budworm (Heliothis virescens). Nature of the experiment: Activity against tobacco budworm (TBW). It is filed as in vivo. Conditions: 144 h, read-out: percent mortality, TBW. The protocol: In conducting evaluations of insecticidal activity, each test compound was formulated as a 400 ppm solution, and this solution was then diluted with water to give lesser concentrations. The 400 ppm solution was prepared by combining 19.2 mL of 0.05% solution of Tween 20 (polyoxyethylene (20) sorbitan monolaurate) in water with a solution of 8 mg of the compound in 0.8 mL of acetone/EtOH (9/1).
Activity against tobacco budworm (Heliothis virescens) was evaluated as follows. A general purpose lepidoptera artificial diet was diluted to half strength with a 5% non nutritive agar. 8 mL of this diet material was dispensed into each one ounce diet cup. One hour prior to treatment 18 to 20 eggs were dispensed onto the diet surface. The cups were then sprayed with formulated material through a flat-fan nozzle. The test was run using concentrations of 400 ppm and 50 ppm. Treated cups were air dried prior to sealing with plastic caps. The cups were held for 6 days at room temperature. Activity was then rated based on the total number of live and dead larvae, and on the size of live larvae.

The test system of experiment [5] is two spotted spider mite (Tetranychus urticae). Nature of the experiment: whole plant or invertebrate. Conditions: 72 h, read-out: percent mortality, TSSM.
For experiment [6], the system named is beet armyworm (Spodoptera exiqua). Nature of the experiment: whole plant or invertebrate. The settings on record: 144 h, read-out: percent mortality, BAW.
The test system of experiment [7] is German cockroach (Blattella germanicus). Nature of the experiment: whole plant or invertebrate. Conditions: 240 h, read-out: percent mortality, GECR.
Experiment [8] relates to aster leafhopper (Macrosteles fascifrons). Nature of the experiment: whole plant or invertebrate. The settings on record: 24 h, read-out: percent mortality, ALH.

By mortality is commonly meant the share of the test organisms that died. Take `CCc1nccc(NC(=O)Cc2ccc(OCC(F)(F)F)cc2)n1` [Compound 9, 4-(2,2,2-trifluroethoxy)phenyl-N-(2-ethyl-4-pyrimidinyl)acetamide]: the mortality at 400 ppm came out at 100% in experiment [1]; 0% in experiment [2]; 100% in experiment [4]; 0% in experiment [5]; 100% in experiment [6]; 0% in experiment [7]. Besides, the mortality at 400 ppm in experiment [8] came out at 100%. Also, in experiment [3], the mortality at 24 µg/g is 0%.
`O=C(Cc1ccc(Oc2ccc(C(F)(F)F)cc2)cc1)Nc1ccnc(C2CCC2)n1` [Compound 66, 4-(4-trifluoromethylphenoxy)phenyl-N-(2-cyclobutyl-4-pyrimidinyl)acetamide]: the mortality at 400 ppm in experiment [1] was determined as 100%; in experiment [4] it was 100%; in experiment [5], 100%; in experiment [6], 100%; in experiment [7], 100%; in experiment [8], 40%. In experiment [3], the mortality at 24 µg/g was found to be 100%.
For the compound `CCCCc1nccc(NC(=O)Cc2ccc(Oc3ccc(C(F)(F)F)cc3)cc2)n1` [Compound 65, 4-(4-trifluoromethylphenoxy)phenyl-N-(2-butyl-4-pyrimidinyl)acetamide], the mortality at 400 ppm in experiment [1] was found to be 100%; in experiment [4], 100%; in experiment [5], 100%; in experiment [6] it was 100%; in experiment [7], 100%; in experiment [8], 0%. For the same compound, the mortality at 24 µg/g in experiment [3] came to 0%.
Consider `O=C(Cc1ccc(Oc2ccc(Cl)cc2)cc1)Nc1ccnc(C2CC2)n1` [Compound 29, 4-(4-chlorophenoxy)phenyl-N-(2-cyclopropyl-4-pyrimidinyl)acetamide], for which the mortality at 400 ppm in experiment [1] was 100%; in experiment [2], 0%; in experiment [4], 100%; in experiment [5], 100%; in experiment [6] it was 100%; in experiment [7], 100%. For the same compound, the mortality at 24 µg/g in experiment [3] is 0%.
For `CCCCc1nccc(NC(=O)Cc2ccc(Oc3ccc(F)cc3)cc2)n1` [Compound 21, 4-(4-fluorophenoxy)phenyl-N-(2-butyl-4-pyrimidinyl)acetamide], the mortality at 400 ppm is 100% in experiment [1]; 90% in experiment [2]; 100% in experiment [4]; 100% in experiment [5]; 100% in experiment [6]; 100% in experiment [7]. In addition, in experiment [3], the mortality at 24 µg/g was found to be 0%.
Regarding `CCc1nccc(NC(=O)Cc2ccc(Oc3ccc(S(C)(=O)=O)cn3)cc2)n1` [Compound 36, 4-(5-methylsulfonyl-2-pyridinyloxy)phenyl-N-(2-ethyl-4-pyrimidinyl)acetamide], the mortality at 400 ppm came to 40% in experiment [1]; 100% in experiment [2]; 100% in experiment [4]; 0% in experiment [5]; 100% in experiment [6]; 40% in experiment [7]. Also, in experiment [3], the mortality at 24 µg/g came to 0%.
In the case of `CC(C)(C)c1nccc(NC(=O)Cc2ccc(Oc3ccc(F)cc3)cc2)n1` [Compound 25, 4-(4-fluorophenoxy)phenyl-N-(2-(1,1-dimethylethyl)-4-pyrimidinyl)acetamide], the mortality at 400 ppm in experiment [1], in experiment [2], in experiment [4], in experiment [5], in experiment [6] and in experiment [7] was 100% throughout. For the same compound, the mortality at 24 µg/g in experiment [3] was 100%.
Take `O=C(Cc1ccc(OCC(F)(F)F)cc1)Nc1ccnc(C2CCC2)n1` [Compound 22, 4-(2,2,2-trifluroethoxy)phenyl-N-(2-cyclobutyl-4-pyrimidinyl)acetamide]: the mortality at 400 ppm in experiment [1] was found to be 100%; in experiment [2], 100%; in experiment [4] it was 0%; in experiment [5] it was 100%; in experiment [6], 100%; in experiment [7] it was 80%. Besides, in experiment [3], the mortality at 24 µg/g stood at 100%.
Take `C=C(C)c1nccc(NC(=O)Cc2ccc(Oc3ccc(F)cc3)cc2)n1` [Compound 27, 4-(4-fluorophenoxy)phenyl-N-(2-(1-methylethenyl)-4-pyrimidinyl)acetamide]: the mortality at 400 ppm in experiment [1] was determined as 100%; in experiment [2], 0%; in experiment [4] it was 0%; in experiment [5] it was 0%; in experiment [6], 0%; in experiment [7], 0%. Also, the mortality at 24 µg/g in experiment [3] is 0%.
With `CCCc1nccc(NC(=O)Cc2ccc(Oc3ccc(F)cc3)cc2)n1` [Compound 19, 4-(4-fluorophenoxy)phenyl-N-(2-propyl-4-pyrimidinyl)acetamide], the mortality at 400 ppm in experiment [1], in experiment [2], in experiment [4], in experiment [5], in experiment [6] and in experiment [7] was 100% in each case. Also, the mortality at 24 µg/g in experiment [3] was 100%.
In the case of `CCCc1nccc(NC(=O)Cc2ccc(OCC(F)(F)F)cc2)n1` [Compound 18, 4-(2,2,2-trifluroethoxy)phenyl-N-(2-propyl-4-pyrimidinyl)acetamide], the mortality at 400 ppm stood at 100% in experiment [1]; 100% in experiment [2]; 80% in experiment [4]; 80% in experiment [5]; 100% in experiment [6]; 20% in experiment [7]. For the same compound, the mortality at 24 µg/g in experiment [3] is 0%.
In the case of `O=C(Cc1ccc(Oc2ccc(F)cc2)cc1)Nc1ccnc(C2CCC2)n1` [Compound 23, 4-(4-fluorophenoxy)phenyl-N-(2-cyclobutyl-4-pyrimidinyl)acetamide], the mortality at 400 ppm in experiment [1], in experiment [2], in experiment [4], in experiment [5], in experiment [6] and in experiment [7] was 100% each time. Also, the mortality at 24 µg/g in experiment [3] is 0%.
For the compound `CC(C)(C)c1nccc(NC(=O)Cc2ccc(OCC(F)(F)F)cc2)n1` [Compound 24, 4-(2,2,2-trifluroethoxy)phenyl-N-(2-(1,1-dimethylethyl)-4-pyrimidinyl)acetamide], the mortality at 400 ppm in experiment [1] is 90%; in experiment [2], 0%; in experiment [4], 100%; in experiment [5], 60%; in experiment [6], 100%; in experiment [7], 0%. The mortality at 24 µg/g in experiment [3] is 100%.
For the compound `CC(C)c1nccc(NC(=O)Cc2ccc(Oc3ccc(F)cc3)cc2)n1` [Compound 31, 4-(4-fluorophenoxy)phenyl-N-(2-(1-methylethyl)-4-pyrimidinyl)acetamide], the mortality at 400 ppm in experiment [1] was 100%; in experiment [2] it was 0%; in experiment [4] it was 100%; in experiment [5], 100%; in experiment [6], 100%; in experiment [7] it was 100%. Further, in experiment [3], the mortality at 24 µg/g stood at 0%.
As to `CCCCCCCCC(C)C(=O)Nc1ccnc(CC)n1` (stereo not drawn) [Compound 33, N-(2-ethyl-4-pyrimidinyl)-2 methyldecamide], the mortality at 400 ppm in experiment [1] came to 80%; in experiment [2], 0%; in experiment [4], 0%; in experiment [5] it was 40%; in experiment [6], 0%; in experiment [7], 20%. Further, the mortality at 24 µg/g in experiment [3] was determined as 0%.
Consider `O=C(Cc1ccc(OCC(F)(F)F)cc1)Nc1ccncn1` [Compound 28, 4-(2,2,2-trifluroethoxy)phenyl-N-(4-pyrimidinyl)acetamide], for which the mortality at 400 ppm in experiment [1] worked out at 100%; in experiment [2] it was 0%; in experiment [4] it was 0%; in experiment [5] it was 0%; in experiment [6], 0%; in experiment [7], 0%. Further, the mortality at 24 µg/g in experiment [3] was 0%.
In the case of `Cc1nccc(NC(=O)Cc2ccc(Oc3cccc(C(F)(F)F)c3)cc2)n1` [Compound 69, 4-(3-trifluoromethylphenoxy)phenyl-N-(2-methyl-4-pyrimidinyl)acetamide], the mortality at 400 ppm in experiment [1] is 0%; in experiment [4] it was 80%; in experiment [5] it was 0%; in experiment [6], 80%; in experiment [7], 0%; in experiment [8], 40%. In experiment [3], the mortality at 24 µg/g came out at 0%.
